Measured values from ChEMBL document CHEMBL3638865, “Macrocycles as factor XIa inhibitors” (2014).

Molecular target: Coagulation factor XI (Homo sapiens, UniProt P03951)
Experiment: In Vitro Assay: The effectiveness of compounds of the present invention as inhibitors of the coagulation Factors XIa, VIIa, IXa, Xa, XIIa, plasma kallikrein or thrombin, can be determined using a relevant purified serine protease, respectively, and an appropriate synthetic substrate. The rate of hydrolysis of the chromogenic or fluorogenic substrate by the relevant serine protease was measured both in the absence and presence of compounds of the present invention. […] A decrease in the rate of absorbance or fluorescence change in the presence of inhibitor is indicative of enzyme inhibition. Factor XIa determinations were made in 50 mM HEPES buffer at pH 7.4.

Coagulation factor XI, sequence (P03951 19-387 limits assumed): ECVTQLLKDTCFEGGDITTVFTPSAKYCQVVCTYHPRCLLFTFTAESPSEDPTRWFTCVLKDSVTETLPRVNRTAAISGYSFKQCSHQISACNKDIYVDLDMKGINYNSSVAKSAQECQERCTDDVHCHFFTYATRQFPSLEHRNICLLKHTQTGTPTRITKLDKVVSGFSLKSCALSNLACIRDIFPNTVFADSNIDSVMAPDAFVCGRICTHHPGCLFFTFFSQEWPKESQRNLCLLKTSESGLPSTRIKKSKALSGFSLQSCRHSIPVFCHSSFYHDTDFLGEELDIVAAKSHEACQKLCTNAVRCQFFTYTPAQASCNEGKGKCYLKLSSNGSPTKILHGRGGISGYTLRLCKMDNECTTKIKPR
Coagulation factor XI, sequence (P03951 388-625 limits assumed): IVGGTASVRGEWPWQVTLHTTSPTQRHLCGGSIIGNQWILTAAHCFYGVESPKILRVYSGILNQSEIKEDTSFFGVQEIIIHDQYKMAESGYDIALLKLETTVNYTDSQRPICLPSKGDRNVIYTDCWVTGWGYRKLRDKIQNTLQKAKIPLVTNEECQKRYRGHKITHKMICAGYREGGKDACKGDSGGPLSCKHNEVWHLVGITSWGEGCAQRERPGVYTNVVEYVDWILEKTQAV

Compound: COC(=O)Nc1ccc2c(c1)CNC(=O)c1ccc(cc1)C[C@H](NC(=O)/C=C/c1cc(Cl)ccc1-n1cnnn1)c1nc-2c(Cl)[nH]1
- Ki: 8.12 µM
